The values that follow come from patent US9302999B2, “Substituted triazoles as herbicides” (E. I. DU PONT DE NEMOURS AND COMPANY, priority 2012, dated 2016).

The test system of assay [1] is Barnyardgrass. Briefly: Test C postemergence: barnyardgrass. The note with it: 125 g ai/ha, scale 0 to 100, 0 no effect, 100 complete control. In kind it is in vivo, Echinochloa crus-galli.
Assay [2] relates to Oilseed Rape. Briefly: Test C postemergence: oilseed rape. It counts as in vivo. The note with it: 62 g ai/ha, scale 0 to 100 (0 no effect, 100 complete control). The procedure, abridged: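 Crop and weed plants were grown in peat-vermiculite medium and treated postemergence at the 1- to 4-leaf stage (2-18 cm tall). After 13-15 days in a greenhouse, each species was rated visually against untreated controls on a 0-100 scale (0 no effect, 100 complete control).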

The test system of assay [3] is Oilseed Rape. Briefly: Test C postemergence: oilseed rape. It counts as in vivo, Brassica napus.
For a further assay, the system named is Waterhemp. Briefly: Test C postemergence: waterhemp. In kind it is in vivo, Amaranthus rudis.
Assay [4] has as its system barnyardgrass (Echinochloa crus-galli). Description: Test C pre-/postemergence: barnyardgrass. It counts as in vivo. The conditions noted are these: Preemergence, 250 g ai/ha; scale 0 to 100, 0 no effect, 100 complete control.
The test system of assay [5] is Barnyardgrass. Description: Test C preemergence: barnyardgrass. It counts as in vivo, Echinochloa crus-galli.
The test system of assay [6] is Oilseed Rape. Briefly: Test C pre-/postemergence: oilseed rape. In kind it is in vivo.
In assay [7] the test system is Oilseed Rape. Briefly: Test C preemergence: oilseed rape. The conditions noted are these: 125 g ai/ha, scale 0 to 100, 0 no effect, 100 complete control. In kind it is in vivo, Brassica napus.
The mark [8] stands for this setting: 125 g ai/ha, scale 0 to 100, 0 no effect, 100 complete control.
[9] abbreviates: 250 g ai/ha, scale 0 to 100 (0 no effect, 100 complete control).
The mark [10] stands for this setting: 31 g ai/ha, scale 0 (no effect) to 100 (complete control).
The mark [11] stands for this setting: 62 g ai/ha, scale of 0 to 100, 0 is no effect, 100 is complete control.
[12] abbreviates: Postemergence, 31 g ai/ha, scale 0 to 100 (0 no effect, 100 complete control).
Setting [13] is: Preemergence, 250 g ai/ha, scale 0 to 100, 0 no effect, 100 complete control.

On to `CCc1nn(-c2ccc(F)c(F)c2)nc1Oc1ccnc(C(F)(F)F)c1` [Compound 171], for which the “Plant response rating, Barnyardgrass” value in the assay with Barnyardgrass [1] came to 60; in assay [4], 98; with Barnyardgrass [5] (setting [10]) it was 5; with Barnyardgrass [5] (setting [11]), 75; in the assay with Barnyardgrass [5] (setting [8]), 95. Besides, the “Plant response rating, Oilseed Rape” value in the assay with Oilseed Rape [2] worked out at 20; with Oilseed Rape [3] (setting [8]), 30; with Oilseed Rape [3] (setting [9]), 30; in the assay with Oilseed Rape [6] (setting [12]), 5; in the assay on Oilseed Rape [6] (setting [13]), 90; in the assay on Oilseed Rape [7] it was 50. Moreover, the results for the “Plant response rating, Waterhemp” value with Waterhemp (setting [8]) and in the assay on Waterhemp (setting [9]) were 75 and 98, respectively.
Turning to `CCCc1nn(-c2ccc(F)c(F)c2)nc1Oc1ccnc(C(F)(F)F)c1` [Compound 172], the “Plant response rating, Barnyardgrass” value in the assay on Barnyardgrass [1] stood at 85; in assay [4], 100; in the assay on Barnyardgrass [5] (setting [10]), 85; in the assay on Barnyardgrass [5] (setting [11]), 98; in the assay on Barnyardgrass [5] (setting [8]), 100. Moreover, the “Plant response rating, Oilseed Rape” value is 90 with Oilseed Rape [2]; 90 with Oilseed Rape [3] (setting [8]); 95 with Oilseed Rape [3] (setting [9]); 50 in the assay on Oilseed Rape [6] (setting [12]); 100 in the assay with Oilseed Rape [6] (setting [13]); 98 with Oilseed Rape [7]. In addition, the “Plant response rating, Waterhemp” value in the assay on Waterhemp (setting [8]) and in the assay with Waterhemp (setting [9]) was 98 each time.
With `CCCc1nn(-c2ccc(F)cc2F)nc1Oc1ccnc(C(F)(F)F)c1` [Compound 179], the “Plant response rating, Barnyardgrass” value in the assay on Barnyardgrass [1] is recorded as 65; in assay [4], 100; in the assay on Barnyardgrass [5] (setting [10]) it was 40; with Barnyardgrass [5] (setting [11]) it was 100; in the assay on Barnyardgrass [5] (setting [8]) it was 100. Besides, the “Plant response rating, Oilseed Rape” value with Oilseed Rape [2] was determined as 40; with Oilseed Rape [3] (setting [8]), 90; in the assay with Oilseed Rape [3] (setting [9]) it was 90; in the assay on Oilseed Rape [6] (setting [12]) it was 30; in the assay with Oilseed Rape [6] (setting [13]) it was 100; in the assay with Oilseed Rape [7], 100. Further, the “Plant response rating, Waterhemp” value with Waterhemp (setting [8]) and with Waterhemp (setting [9]) was 95 in each case.
On to `CCc1nn(-c2ccc(C(F)(F)F)c(F)c2)nc1Oc1ccnc(C(F)(F)F)c1` [Compound 183], for which the “Plant response rating, Barnyardgrass” value in the assay on Barnyardgrass [1] was determined as 80; in assay [4], 100; with Barnyardgrass [5] (setting [10]), 40; in the assay on Barnyardgrass [5] (setting [11]), 95; in the assay on Barnyardgrass [5] (setting [8]), 100. Moreover, the “Plant response rating, Oilseed Rape” value with Oilseed Rape [2] stood at 25; with Oilseed Rape [3] (setting [8]) it was 25; with Oilseed Rape [3] (setting [9]), 50; with Oilseed Rape [6] (setting [12]), 20; with Oilseed Rape [6] (setting [13]), 100; with Oilseed Rape [7], 100. For the same compound, the “Plant response rating, Waterhemp” value in the assay on Waterhemp (setting [8]) and in the assay with Waterhemp (setting [9]) was 100 each time.
For the compound `CCOc1nn(-c2ccc(Cl)cc2)nc1Cc1ccnc(C(F)(F)F)c1` [Compound 188], the “Plant response rating, Barnyardgrass” value in the assay on Barnyardgrass [1] came out at 98; in assay [4], 100; with Barnyardgrass [5] (setting [10]) it was 80; in the assay on Barnyardgrass [5] (setting [11]), 100; in the assay with Barnyardgrass [5] (setting [8]) it was 100. Moreover, the “Plant response rating, Oilseed Rape” value in the assay with Oilseed Rape [2] amounted to 90; with Oilseed Rape [3] (setting [8]) it was 90; in the assay on Oilseed Rape [3] (setting [9]) it was 95; in the assay on Oilseed Rape [6] (setting [12]), 40; with Oilseed Rape [6] (setting [13]) it was 100; with Oilseed Rape [7], 100. Moreover, the “Plant response rating, Waterhemp” value in the assay on Waterhemp (setting [8]) and in the assay on Waterhemp (setting [9]) was 100 in each case.
